Results taken from PubChem BioAssay AID2060499 (Molecular Pharmacology Branch, DTP, NCI, 2025).

Test system: 777334-354-R2-J4-PDC tumor spheroids with HUVEC/MSC, viability
Experiment: Anticancer human tumor 777334-354-R2-J4-PDC patient-derived pancreatic adenocarcinoma cell line growth inhibition [GQUAD]
Conditions: for IC50: curve of first compound; for viability, T/C: stronger effect = lower value; active means viability on the fitted dose curve at most 10% of control; inactive means the rest
Excerpt: DNA G-quadruplex Stabilizer Agents in Combinations in Complex Spheroids
A high-throughput screen of multi-cell type tumor spheroids was designed to identify active combinations of DNA G-quadruplex stabilizer agents and targeted small molecules. Complex spheroids include a stromal component modeled by human endothelial cells (HUVEC) and fibroblasts modeled by human mesenchymal stem cells (MSCs). The concentration ranges selected for each drug and investigational agent were based upon clinically achievable concentrations if the clinical Cmax of the agent was known.
Compounds. The drugs and investigational agents: pidnarulex (CX-5461; NSC782164), APTO-253 (NSC789042), BRACO-19 (NSC847499), peposertib (NSC802822), ceralasertib (NSC780249), elimusertib (NSC800525), camonsertib (NSC841442), AZD-1390 (NSC803789), olaparib (NSC753686), talazoparib (NSC767125), ART-558 (NSC835418), sotorasib (NSC818433), MRTX-1133 (NSC836407), SN-38 (NSC673596), topotecan (NSC609699), etoposide (NSC141540), doxorubicin (NSC123127), gemcitabine (NSC613327), 5-fluorouracil (NSC19893), paclitaxel (NSC125973), vemurafenib (NSC761431), panobinostat (NSC761190), R-306465 (JNJ-16241199; NSC773264), adavosertib (NSC754352), TP-3654 (NSC805149), carboplatin (NSC241240), KSQ-4279 (NSC840948), and staurosporine (NSC755774) were obtained from the National Cancer Institute (NCI) Developmental Therapeutics Program Chemical Repository (34). The FDA-approved anticancer drug set is available from the NCI Developmental Therapeutics Program. […] The stock solutions were prepared in dimethyl sulfoxide (DMSO, Sigma-Aldrich, St. Louis, MO, cat. D2650) at 800-fold the tested concentration and stored at -70 degrees C prior to their use. All drugs and investigational agents were tested over a range starting from a high concentration at or near the clinical Cmax and decreasing in half-log increments. If the clinical Cmax for an agent had not been determined, the highest concentration tested was 10 microM.
2.3 Cell Culture. All cells were maintained in an incubator at 37 degrees C and 5% CO2 with 95% humidity. The PDC lines were cultured according to standard operating procedures established by the NCI PDMR. All PDCs were thawed and cultured in Matrigel-coated flasks prepared with a working solution of 1X Ham's F-12 nutrient mix, without supplementation (Invitrogen, cat. 11765054), 100 U/mL penicillin-streptomycin (Invitrogen, cat. 15140122), and 2.5% Matrigel (Corning Inc., cat. 354248) for the first three passages. The 857933-349-R-J2-PDC line was cultured in 6C/Colon 1B media, which includes advanced DMEM/F-12 (Thermo Fisher Scientific, cat. 12634028), 10 mM HEPES (Thermo Fisher Scientific, cat. 15630080), 1X GlutaMAX supplement (Thermo Fisher Scientific, cat. 35050061), 0.1 mg/mL primocin (InvivoGen, cat. ant-pm-2), 10% defined fetal bovine serum, heat inactivated (HyClone Laboratories Inc., cat. SH30070.03HI), 50% L-WRN conditioned media (ATCC, cat. CRL-3276), 1.25 mM N-Acetyl-L-cysteine (Sigma-Aldrich, cat. A9165), 10 mM nicotinamide (Sigma-Aldrich, cat. N0636), 1X B-27 supplement (Thermo Fisher Scientific, cat. 17504044), 1X N-2 supplement (Thermo Fisher Scientific, cat. 17502048), 10 microM Y-27632 dihydrochloride (Tocris Bioscience, cat. 1254), and 50 ng/mL human EGF recombinant protein (Thermo Fisher Scientific, cat. PHG0311). The 485176-168-R4-J1-PDC line was cultured in Panc media, which includes all 6C/Colon 1B media components plus 100 ng/mL human FGF-10 (Thermo Fisher Scientific, cat. 100-26), 500 nM SB-431542 (Selleckchem, cat. S1067), and gastrin (Tocris, cat. 3006).
[…]

[1] = second compound 0.0316 µM, first compound 0.0316 µM
[2] = second compound 0.0316 µM, first compound 0.1 µM
[3] = second compound 0.0316 µM, first compound 0.316 µM
[4] = second compound 0.0316 µM, first compound 1 µM
[5] = second compound 0.0316 µM, first compound 3.16 µM
[6] = second compound 0.0316 µM, first compound 10 µM
[7] = second compound 0.1 µM, first compound 0.0316 µM
[8] = second compound 0.1 µM, first compound 0.1 µM
[9] = second compound 0.1 µM, first compound 0.316 µM
[10] = second compound 0.1 µM, first compound 1 µM
[11] = second compound 0.1 µM, first compound 3.16 µM
[12] = second compound 0.1 µM, first compound 10 µM
[13] = second compound 0.316 µM, first compound 0.0316 µM
[14] = second compound 0.316 µM, first compound 0.1 µM
[15] = second compound 0.316 µM, first compound 0.316 µM
[16] = second compound 0.316 µM, first compound 1 µM
[17] = second compound 0.316 µM, first compound 3.16 µM
[18] = second compound 0.316 µM, first compound 10 µM
[19] = second compound 1 µM, first compound 0.0316 µM
[20] = second compound 1 µM, first compound 0.1 µM
[21] = second compound 1 µM, first compound 0.316 µM
[22] = second compound 1 µM, first compound 1 µM
[23] = second compound 1 µM, first compound 3.16 µM
[24] = second compound 1 µM, first compound 10 µM
[25] = second compound 3.16 µM, first compound 0.0316 µM
[26] = second compound 3.16 µM, first compound 0.1 µM
[27] = second compound 3.16 µM, first compound 0.316 µM
[28] = second compound 3.16 µM, first compound 1 µM
[29] = second compound 3.16 µM, first compound 3.16 µM
[30] = second compound 3.16 µM, first compound 10 µM
[31] = second compound 10 µM, first compound 0.0316 µM
[32] = second compound 10 µM, first compound 0.1 µM
[33] = second compound 10 µM, first compound 0.316 µM
[34] = second compound 10 µM, first compound 1 µM
[35] = second compound 10 µM, first compound 3.16 µM
[36] = second compound 10 µM, first compound 10 µM
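Further: spheroids exposed to compounds for 7 days before readout.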

CC1COCCN1c1cc(C2(O)CC3CCC(C2)O3)c2cnn(-c3ccn[nH]3)c2n1 (centres undefined) + CN(C)c1ccc(Nc2c3ccc(NC(=O)CCN4CCCC4)cc3nc3cc(NC(=O)CCN4CCCC4)ccc23)cc1
296 nM: IC50 (second compound 3.16 µM)
599 nM: IC50 (second compound 0.0316 µM) | IC50 (second compound 0.316 µM)
189 nM: IC50 (second compound 10 µM)
644 nM: IC50 (second compound 0.1 µM)
inactive: viability, T/C [1] 96.5% | viability, T/C [2] 79.1% | viability, T/C [3] 59.8% | viability, T/C [4] 40.5% | viability, T/C [5] 32% | viability, T/C [6] 20.4% | viability, T/C [7] 105% | viability, T/C [8] 80.3% | viability, T/C [9] 58.8% | viability, T/C [10] 43.3% | viability, T/C [11] 33.9% | viability, T/C [12] 20% | viability, T/C [13] 96.3% | viability, T/C [14] 75.4% | viability, T/C [15] 53.2% | viability, T/C [16] 45.8% | viability, T/C [17] 33.4% | viability, T/C [18] 19% | viability, T/C [19] 83% | viability, T/C [20] 63% | viability, T/C [21] 53% | viability, T/C [22] 36% | viability, T/C [23] 31.4% | viability, T/C [24] 19.1% | viability, T/C [25] 87.9% | viability, T/C [26] 68.8% | viability, T/C [27] 46.7% | viability, T/C [28] 34.7% | viability, T/C [29] 26.9% | viability, T/C [30] 16.5% | viability, T/C [31] 74.7% | viability, T/C [32] 56.1% | viability, T/C [33] 45.8% | viability, T/C [34] 29.7% | viability, T/C [35] 25.5% | viability, T/C [36] 16%
348 nM: IC50 (second compound 1 µM)

O=C(NO)c1cnc(N2CCN(S(=O)(=O)c3ccc4ccccc4c3)CC2)nc1 + Cc1[nH]c2ccc(F)cc2c1-c1nc2c3cccnc3c3ncccc3c2[nH]1
1580 nM: IC50 (second compound 1 µM)
1520 nM: IC50 (second compound 0.316 µM)
1050 nM: IC50 (second compound 3.16 µM)
1440 nM: IC50 (second compound 0.0316 µM)
active: viability, T/C [6] 2.55% | viability, T/C [12] 0.23% | viability, T/C [18] 2.6% | viability, T/C [24] 2.98% | viability, T/C [30] 0.99% | viability, T/C [36] 2.58%
1390 nM: IC50 (second compound 0.1 µM)
inactive: viability, T/C [1] 104% | viability, T/C [2] 91.6% | viability, T/C [3] 87.3% | viability, T/C [4] 68.3% | viability, T/C [5] 12.7% | viability, T/C [7] 92.7% | viability, T/C [8] 101% | viability, T/C [9] 91.6% | viability, T/C [10] 64.6% | viability, T/C [11] 13.6% | viability, T/C [13] 99.2% | viability, T/C [14] 92.9% | viability, T/C [15] 86.2% | viability, T/C [16] 67.1% | viability, T/C [17] 22% | viability, T/C [19] 88.4% | viability, T/C [20] 84.6% | viability, T/C [21] 71.8% | viability, T/C [22] 70.1% | viability, T/C [23] 22.5% | viability, T/C [25] 55.7% | viability, T/C [26] 41.7% | viability, T/C [27] 67% | viability, T/C [28] 50.5% | viability, T/C [29] 17.5% | viability, T/C [31] 38.4% | viability, T/C [32] 38.7% | viability, T/C [33] 52.4% | viability, T/C [34] 41.9% | viability, T/C [35] 19.7%
< 31.6 nM: IC50 (second compound 10 µM)
